Experimental data from US5808151A, “Biphenylamido derivatives as melatonergic agents” (Bristol-Myers Squibb Company, priority 1997, dated 1998).

How the values were obtained:
[1] = target: ML1 rabbit melatonin receptor; assay: Melatonergic binding: ML1 rabbit melatonin receptor binding (2-[125I]-iodomelatonin, rabbit parietal cortex); set-up: species or system rabbit (Male New Zealand white); conditions: 37° C., 1 hour, read-out: In-Vitro Receptor Binding Activities ML1 (IC50)
Protocol: (§1) The melatonergic binding of the compounds of Formula I was determined by the method of Reppert, S. M., et al., as described in Neuron, Vol. 13, 1177-1185 (1994) and Proc. Nat. Acad. Sci. USA, 92, 8734-8738 (1995) and also as described by Stankov, B., et al., "Characterization and mapping of melatonin receptors in the brain of three mammalian species: Rabbit, horse and sheep," in Neuroendocrinology, 53, 214-221 (1991). The assays were incubated at 37° C. for 1 hour, and the reaction was terminated by filtration through a Brandel cell harvester. The filters were washed 3 times with wash buffer. […] The reagents, membranes, and techniques used in the melatonergic binding assays are more fully described below:
(§2) (a) 50 mM Tris buffer containing 12.5 mM MgCl2 and 2 mM EDTA (pH 7.4 at 37° C.).
(§3) (b) Wash buffer: 20 mM Tris base containing 2 mM MgCl2 (pH 7.4 at room temperature).
(§4) (c) 6-Chloromelatonin (10^-5 M final concn.).
(§5) (d) 2-[^125 I]-Iodomelatonin. Source: New England Nuclear
Male New Zealand white rabbits (Hazelton Research) are decapitated, the brains are rapidly removed and chilled. The parietal cortex is crudely dissected and the tissue frozen on dry ice at -80° C. until assayed. Tissue is weighed and thawed in 20 mls of ice-cold Tris buffer (a) and then homogenized by treatment with a polytron for 10 seconds at setting 17. Ice cold Tris (a) is added to a volume of 40 ml. The homogenate is centrifuged in a Sorvall-SS-34 head at 19,000 rpm (44,000× g) for 20 min at 4° C. The resulting supernatant is decanted and discarded. The pellet is re-homogenized in an additional 20 ml of Tris buffer, diluted and centrifuged as before. The supernatant is decanted and discarded. The resulting pellet is homogenized in 20 volumes of Tris buffer per gram of original tissue (a 1:20 homogenate), chilled, and held on ice until assayed.

[2] = target: T1, ML1a human melatonin receptor (Homo sapiens, UniProt P48039); assay: Melatonergic binding: ML1a human melatonin receptor binding (2-[125I]-iodomelatonin, COS-1 cell membranes); conditions: human ML1a in COS-1 cells; 37° C., 1 hour; read-out: In-Vitro Receptor Binding Activities ML1a (IC50)
T1 construct: expressed in transfected cells; host or cells: COS-1 cells
Protocol: as §1, §2, §3, §4, §5
The cDNA (human ML1a) was introduced into COS-1 cells by the DEAE-dextran method. Three days later, the media was removed, the plates washed with phosphate buffered saline, the cells removed using Hank's balanced salt solution and pelleted. The supernatant was discarded and the pellets frozen. For preparing membrane homogenates, the pellets are thawed on ice, and resuspended in TME buffer [Tris base, MgCl2, EDTA (pH 7.4 at 37° C.], supplemented with aprotinin, leupeptin and phenylmethyl-sulfonylfluoride. The cells were then homogenized using a dounce homogenizer and centrifuged. The resulting pellet was resuspended with a dounce homogenizer in TME and frozen. On the day of assay, a small aliquot was thawed on ice and resuspended in TME buffer (1:1000).

T1 sequence (P48039 whole entry): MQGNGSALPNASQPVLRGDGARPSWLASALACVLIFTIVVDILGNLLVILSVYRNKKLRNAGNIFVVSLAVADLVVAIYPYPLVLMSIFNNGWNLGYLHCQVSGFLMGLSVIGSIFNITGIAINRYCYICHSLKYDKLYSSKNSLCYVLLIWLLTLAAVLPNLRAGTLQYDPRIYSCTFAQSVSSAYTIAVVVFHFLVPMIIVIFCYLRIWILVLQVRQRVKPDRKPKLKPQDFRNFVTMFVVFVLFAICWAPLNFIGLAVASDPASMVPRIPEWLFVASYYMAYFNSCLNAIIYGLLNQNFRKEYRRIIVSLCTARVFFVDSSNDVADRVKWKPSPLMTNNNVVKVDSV

Row | Compound | IC50 [1] | IC50 [2]
1 | CCCC(=O)Nc1cccc(-c2cccc(OC)c2)c1 [Example 1, N-(3'-Methoxy-[1,1'-biphenyl]-3-yl)butanamide] | < 0.01 µM | < 0.1 µM
2 | COc1cccc(-c2cccc(NC(=O)C(C)C)c2)c1 [Example 2, N-(3'-Methoxy-[1,1'-biphenyl]-3-yl)2-methylpropanamide] | > 0.05 µM | < 0.1 µM
3 | COc1cccc(-c2cccc(NC(=O)C3CC3)c2)c1 [Example 3, N-(3'-Methoxy-[1,1'-biphenyl]-3-yl)cyclopropanecarboxamide] | – | < 0.1 µM
4 | CCC(=O)Nc1cccc(-c2cccc(OC)c2)c1 [Example 4, N-(3'-Methoxy-[1,1 '-biphenyl]-3-yl)propanamide] | – | < 0.1 µM
5 | COCC(=O)Nc1cccc(-c2cccc(OC)c2)c1 [Example 5, N-(3'-Methoxy-[1,1'-biphenyl]-3-yl)-2-methoxyacetamide] | – | > 0.3 µM
6 | CCNC(=O)Nc1cccc(-c2cccc(OC)c2)c1 [Example 6, N-Ethyl N'-(3'-methoxy-[1,1'-biphenyl]-3-yl)urea] | > 0.05 µM | > 0.3 µM
7 | CCCC(=O)NCc1ccccc1-c1cccc(OC)c1 [Example 7, N-[(3'-Methoxy[1,1'-biphenyl]-2-yl)methyl]butanamide] | 0.01 to 0.05 µM | 0.1 to 0.3 µM
8 | COc1cccc(-c2ccccc2CNC(=O)C(C)C)c1 [Example 8, N-[(3'-Methoxy[1,1'-biphenyl]-2-yl)methyl]-2-methylpropanamide] | < 0.01 µM | 0.1 to 0.3 µM

The remaining lines, values ahead:

Row | IC50 [1] | IC50 [2] | Compound
9 | < 0.01 µM | 0.1 to 0.3 µM | CCNC(=O)NCc1ccccc1-c1cccc(OC)c1 [Example 9, N-Ethyl N'-[(3'-methoxy[1,1'-biphenyl]-2-yl)methyl]urea]
10 | 0.01 to 0.05 µM | > 0.3 µM | CCCC(=O)NCc1cccc(-c2cccc(OC)c2)c1 [Example 10, N-[(3'-methoxy-[1,1'-biphenyl]-3-yl)methyl]butanamide]
11 | < 0.01 µM | 0.1 to 0.3 µM | COc1cccc(-c2cccc(CNC(=O)C(C)C)c2)c1 [Example 11, N-[(3'-methoxy-[1,1'-biphenyl]-3-yl)methyl]-2-methylpropanamide]
12 | 0.01 to 0.05 µM | > 0.3 µM | CCNC(=O)NCc1cccc(-c2cccc(OC)c2)c1 [Example 12, N-Ethyl N'-[(3'-methoxy-[1,1'-biphenyl]-3-yl)methyl]urea]
